Data published in US20080319163A1, “Method for Isolating and Purifying Immuno-Modulating Polypeptide from Cow Placenta” (priority 2005, published 2008).
“Also recorded” adds a separate entry of the source.

Experiments:
mice spleen lymphocyte = test: Stimulating lymphocyte proliferation in vitro (MTT method); format: cell-based; details: mice spleen lymphocyte suspension, 68 h + 4 h MTT, OD 570 nm; chromatography fractions screened; values only in figures; listed as component 4
Method: 1) Stimulating Lymphocyte Proliferation in vitro
Culturing Cells • 1 Preparing Spleen Lymphocyte Suspension:
Remove out the mice spleen under sterile condition, separate lymphocyte by lymphocyte separation medium, regulate the cell concentration to 1×10^6/ml with complete 1640 culture solution. • 2 Experiment Arrangement:
Set control group and experiment group separately to identify the activity of stimulating spleen lymphocyte proliferation by every component. • 3. Experiment Method:
Add 100 μL mice spleen lymphocyte suspension (1×10^6/mL) to 96 well cultured plates. Add 100 μL saline/sample to control group and experiment group separately. Mix to homogenous gently, culture in incubator for 68 h at 37° C. under 5% CO2. Add 20 μl MTT to every well under sterile condition, Mix to homogenous gently, continue to culture for 4 h, add 100 μl dimethyl sulfoxide to every well, keep at room temperature for 10 min, then determine OD of every well by ELISA at 570 nm. • 4. Data Processing
The spleen lymphocyte proliferation rate of experiment group is calculated by the following formula: […]
The value of P is calculated by variance analysis, and significant difference is calculate by T test.

[1] = Isoelectric point by CIEF (capillary isoelectric focusing); format: physicochemical; details: determined by CIEF
Text: 3) Determining isoelectric point of immuno-modulating polypeptide by CIEF.
The foresaid methods 2)-5) are the normal methods known as those skilled in the art.

Substance: Tyr-X-Phe-Leu-Gly-Leu-Pro-Gly-X-Thr [immuno-modulating polypeptide]
- activity determined by stimulating lymphocyte proliferation in vitro (mice spleen lymphocyte): high-purity inmmuno-modulating polypeptide; also recorded: high-purity immuno-modulating polypeptide
- isoelectric point [1]: 3.82
